One series relates to PC-3. The experiment in a line: In vitro proliferation assay (MTT), PC-3. It counts as cell-based, human. The conditions noted are these: Homo sapiens, PC-3, MTT assay; value (SD, n) where given; read-out: PC-3 Prostate (IC50 µM). In outline:
(§1)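 A570 readout of DMSO-solubilized MTT formazan after 3-day compound exposure; IC50 from raw data. Cells plated 1000–2500/well and recovered overnight before dosing.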

Another series concerns NCI-H460. The experiment in a line: In vitro proliferation assay (MTT), NCI-H460. The conditions noted are these: Homo sapiens, NCI-H460; MTT assay; value (SD, n) where given; read-out: H-460 Lung (IC50 µM). The format is cell-based. How it is done: (§2) The proliferation of tumor cells can be measured using a tetrazolium salt-based assay known as the MTT (3-[4,5-Dimethylthiazol-2-yl]-2,5-diphenyltetrazolium bromide) assay. The proliferation test is performed essentially as described by Carmichael et al., Cancer Res. 47: 936-942, 1987. For the assay, the cell lines are plated onto 96 well plates at 1000 to 2500 cells/well (depending on the properties of the individual cell lines), left to attach and recover overnight. […] After 3 days, the cells are incubated with MTT dye (3-[4,5-Dimethylthiazol-2-yl]-2,5-diphenyltetrazolium bromide, Sigma # M5655, 10 mg/ml in Hank's Buffered Saline) to estimate the amount of live cells remaining vs. concentration for the test compounds. Specifically, MTT solution is added to a final concentration of […] and the plates incubated at 37 C for 2 to 4 hr. The MTT and culture medium is then removed from the cultures and 200 µl of DMSO is added to solubilize the dye from the cell layer. The absorbance at 570 nm is determined for each culture using a Spectramax plate reader (Molecular Devices).
(§3) IC50s were determined from the raw data from either the MTT or SRB assays.
All of the cell lines were obtained from American Type Tissue Collection, with the ATCC accession number in parentheticals. MCF-7 and MDA-MB-231 cells were grown in improved minimum essential medium (Biofluids) without phenol red, supplemented with 5 % fetal bovine serum, 0.01 mg/ml gentamicin and 3 mM L-glutamine. All of the other cell lines were grown in RPMI 1640 medium (Life Technologies) supplemented with 5 % fetal bovine serum, 0.01 mg/ml gentamicin and 3 mM L-glutamine TABLE 3

A further series addresses cdk2/cyclin E (Homo sapiens, UniProt P24941). Nature of the series: Cyclin-dependent kinase assay, cdk2/cyclin E. The settings on record: CDK2 IC50, nM, GST-pRb substrate, 10 µM ATP.
A further series concerns the target cdk1/cyclin B (Homo sapiens, UniProt P06493). The experiment in a line: Cyclin-dependent kinase assay, cdk1/cyclin B. The conditions noted are these: CDK1 IC50, nM, Histone H1, 10 µM ATP.
A further series deals with Colo-205. Nature of the series: In vitro proliferation assay (MTT), Colo-205. The format is cell-based. The settings on record: Homo sapiens, COLO 205; MTT assay; value (SD, n) where given; read-out: Colo-205 Colon (IC50 µM). How it is done:
as §2, §3

The next series deals with MDA-MB-435. Nature of the series: In vitro proliferation assay (MTT), MDA-MB-435. The settings on record: Homo sapiens, MDA-MB-435, MTT assay; value (SD, n) where given; read-out: MB-435 Breast (IC50 µM). It counts as cell-based, human. In outline: as §1
The target in a further series is cdk4/cyclin D1 (Homo sapiens, UniProt P11802). Nature of the series: Cyclin-dependent kinase assay, cdk4/cyclin D1. The settings on record: cyclin D1/cdk4; GST-pRb substrate, 10 µM ATP. It counts as biochemical.
Sequence of cdk4/cyclin D1 (P11802 whole entry): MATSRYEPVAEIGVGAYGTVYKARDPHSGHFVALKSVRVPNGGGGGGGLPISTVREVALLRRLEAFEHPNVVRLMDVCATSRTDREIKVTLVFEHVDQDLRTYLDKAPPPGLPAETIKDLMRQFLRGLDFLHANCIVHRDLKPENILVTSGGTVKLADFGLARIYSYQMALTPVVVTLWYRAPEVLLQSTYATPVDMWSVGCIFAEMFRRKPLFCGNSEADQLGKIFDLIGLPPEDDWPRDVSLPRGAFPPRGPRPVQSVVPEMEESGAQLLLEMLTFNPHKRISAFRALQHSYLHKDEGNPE
Sequence of cdk4/cyclin D1 (P24385 whole entry partner): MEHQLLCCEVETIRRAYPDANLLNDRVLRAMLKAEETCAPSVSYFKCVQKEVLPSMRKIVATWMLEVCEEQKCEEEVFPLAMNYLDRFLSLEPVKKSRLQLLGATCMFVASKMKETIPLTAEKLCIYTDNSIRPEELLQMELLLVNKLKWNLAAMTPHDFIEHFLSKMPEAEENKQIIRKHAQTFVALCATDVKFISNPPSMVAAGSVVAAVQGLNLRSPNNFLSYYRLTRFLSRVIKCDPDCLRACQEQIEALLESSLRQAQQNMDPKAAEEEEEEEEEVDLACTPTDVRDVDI
A short description of a further series: in vivo. The conditions noted are these: mouse, in vivo, iv, 3 mg/kg.

Where a name gives a salt, the structure may show the parent alone. Where only a bound is given, the exact number is not on record here.

Sequence of cdk1/cyclin B (P06493 whole entry): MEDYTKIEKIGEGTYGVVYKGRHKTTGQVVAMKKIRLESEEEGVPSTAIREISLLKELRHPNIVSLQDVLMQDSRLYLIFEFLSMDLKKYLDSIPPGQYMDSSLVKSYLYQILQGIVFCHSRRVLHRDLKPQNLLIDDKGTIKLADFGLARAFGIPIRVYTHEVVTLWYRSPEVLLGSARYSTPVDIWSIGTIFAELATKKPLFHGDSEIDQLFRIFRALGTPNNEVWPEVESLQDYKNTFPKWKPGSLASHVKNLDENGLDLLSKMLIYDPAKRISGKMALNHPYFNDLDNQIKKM
Sequence of cdk1/cyclin B (P14635 whole entry partner): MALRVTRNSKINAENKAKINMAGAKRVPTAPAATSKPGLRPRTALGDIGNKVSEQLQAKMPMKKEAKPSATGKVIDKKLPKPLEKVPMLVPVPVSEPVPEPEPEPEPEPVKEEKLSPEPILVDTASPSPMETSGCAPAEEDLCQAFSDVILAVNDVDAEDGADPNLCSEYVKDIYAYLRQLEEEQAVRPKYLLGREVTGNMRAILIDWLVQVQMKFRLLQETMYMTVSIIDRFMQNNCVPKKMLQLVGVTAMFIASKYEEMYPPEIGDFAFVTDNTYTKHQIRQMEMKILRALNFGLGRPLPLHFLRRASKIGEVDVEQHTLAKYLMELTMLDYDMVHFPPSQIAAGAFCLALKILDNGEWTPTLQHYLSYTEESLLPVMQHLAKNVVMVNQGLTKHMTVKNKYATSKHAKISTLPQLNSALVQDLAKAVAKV
Experimental for cdk1/cyclin B: The IC50 values for cdk1/cyclin B, cdk2/cyclin E, and cdk4/cyclin D1 inhibition are determined using the following methods: • The cdk1 sequence (accession number Y00272) is amplified by PCR and cloned into the BamHI and SalI sites of pFASTBAC1 (Life Technologies).
The cyclin B1 sequence (accession number M25753) is amplified by PCR and cloned into the BamHI and SalI sites of pFASTBAC1 (Life Technologies).
The insect cell (Sf9) expression is optimized for each of the CDK/cyclin pairs according to the manufacturer's protocols (Life Technologies). For cdk4-HA/cyclin D1-His6 an infection of 0.1 multiplicity of infection (MOI) for 48 hours gives the best expression levels of the complex as well as activity.
The viruses are added to the cells and the culture is incubated at 27°C for the desired time. The cells are harvested by centrifugation at 3000 rpm for 10 minutes. The cells are snap frozen on dry ice and stored at - 80°C.
Cell extracts are made following a standard procedure. The cell pellet is resuspended in lysis buffer (50 mM HEPES, pH 8.0, 10 mM MgCl2, 1 mM DTT, 2.5 mM EGTA, 1 mM EDTA, 10 mM β-glycerophosphate, 1 mM sodium vanadate, 1 mM sodium fluoride, 1 x Protease inhibitor cocktail). The cells are lysed using the microfluidizer (Microfluidics) for 20 minutes. Cell debris is removed by centrifugation at 100,000 x g. The cell extracts are aliquoted in 1 ml aliquots, frozen on dry ice, and stored at -80°C.
The kinase reactions are performed following a standard procedure. The enzyme and inhibitor are diluted in kinase buffer (50 mM HEPES, pH 8.0, 10 mM MgCl2, 2.5 mM EGTA, 10 mM β-glycerophosphate, 1 mM sodium vanadate, 1 mM sodium fluoride, and 1 mM DTT) and pre-incubated for 30 minutes. […] The cdk1 enzyme activity is assayed using Histone H1 (Sigma) in the presence of 10 µM ATP for 30 min at room temperature. The reactions are terminated by the addition of 50 µL of 10 mM cold ATP to stop the reactions. The reactions are transferred to a pre-soaked 96-well multi-screen plate containing 30 µL of 100% TCA per well. After incubation for one hour at room temperature, the plates are washed twice with 200 µl of 20% TCA, followed by 200 µl of 10% TCA and finally with 200 µl of 5% TCA. After drying the plates at room temperature, the filter plates are placed in adapter plates (Packard) and 40 µl of Microscint-O® (Packard) is added to each well. Top Seal A film is used to cover the plates before counting in a Top Count Scintillation Counter.
The % remained activity of the indicated Cdk/cyclin kinase complex in the presence of inhibitor is calculated by the ratio of cpm in the presence of inhibitor to cpm in the absence of inhibitor (%Activity = vi/vo x 100%).
Experimental for in vivo: Male mice are given single intravenous cassette doses of CDK inhibitor compounds.
Doses are adjusted for the weight of the individual dihydrochloride and trihydrochloride salts. The compounds are stored desiccated within a closed cabinet at room temperature before use. Dose levels are prepared on the morning of each study.
A single intravenous cassette dose (18 or 15 mg/kg free base) is administered. For each compound, this is equivalent to a dose of approx. 3 mg/kg free base. […] The dose is administered at a volume of 10 ml/kg (total volume of approximately 0.25 ml/animal).
Male mice (Hsd:ICR (CD-1® SD®), Harlan), each weighing approximately 20 - 30 g at the start of the study. […] Water is available ad libitum throughout the study.
Dose Administration and Sample Collection: • A single cassette dose of 5-6 compounds is administered by bolus injection into the tail vein over a 10 - 15-second period. […] Whole blood (approximately 0.6 ml/sample) is obtained by cardiac puncture and transferred to 3 ml glass tubes containing 45 U sodium heparin.
Sample Processing: Plasma: Whole blood is centrifuged at approximately 3,200 rpm for 10 min at approximately 5°C and the plasma (approx. 0.3 ml/sample) is transferred to chilled plastic vials and stored at approx. -70°C until bioanalysis.
Sample Analysis: Concentrations of each test article in plasma are quantitated by a non-validated method based on LC/MS using the following protocol.
Samples are removed from the freezer, allowed to thaw at room temperature, and vortexed to insure complete homogenization prior to sample manipulation. Samples are then prepared according to the following scheme: • 1. transfer 48 µL of plasma (blank mouse sample) into a 12 x 75 mm test tube. • 2. add 12 µL of working standard to the blank plasma for standard curve preparation. • 3. […] Inject 25 µL on LC/MS.
Data Analysis: Concentrations of Compounds in plasma of individual animals are determined by bioanalytics. […] Statistical analyses are limited to simple expressions of variation (mean and standard deviation). The plasma AUC (area-under-curve) is determined by the linear trapezoidal rule. […] All PK parameters are determined by noncompartmental methods using WinNonlin version 3.0 (Pharsight Corp). Plasma vs. time profiles are prepared by Sigma Plot (SPSS, Inc.).

For the compound `N[C@H]1CC[C@H](Nc2nc(NC3CCN(C(=O)CSc4ccccc4)CC3)c3ncn(C4CCCC4)c3n2)CC1` [compound 46, trans-1-{4-[2-(4-Amino-cyclohexylamino)-9-cyclopentyl-9H-purin-6-ylamino]-piperidin-1-yl}-2-phenylsulfanylethanone dihydrochloride], the 50% inhibitory concentration (IC50) in the series on PC-3 was found to be 0.19 µM; in the series on NCI-H460, 0.17 µM; at cdk2/cyclin E it was 55 nM; at cdk1/cyclin B, 153 nM; in the series on Colo-205 it was 0.06 µM; with MDA-MB-435 it was 0.17 µM. Also, the IC50 against cdk4/cyclin D1 came out at 709 nM.
Take `CC(C)[C@@H]1CC[C@@H](C)C[C@H]1OC(=O)N1CCC(Nc2nc(N[C@H]3CC[C@H](N)CC3)nc3c2ncn3C2CCCC2)CC1` [compound 86, trans-4-[2-(4-Amino-cyclohexylamino)-9-cyclopentyl-9H-purin-6-ylamino]-piperidine-1-carboxylic acid (1R,2S,5R)-2-isopropyl-5-methyl-cyclohexyl ester dihydrochloride]: the 50% inhibitory concentration (IC50) in the series on PC-3 came to 0.69 µM; in the series with NCI-H460, 0.4 µM; with Colo-205 it was 0.29 µM; with MDA-MB-435, 0.52 µM.
As to `N[C@H]1CC[C@H](Nc2nc(NC3CCN(C(=O)CCc4ccccc4)CC3)c3ncn(C4CCCC4)c3n2)CC1` [compound 33, trans 1-{4-[2-(4-Amino-cyclohexylamino)-9-cyclopentyl-9H-purin-6-ylamino]-piperidin-1-yl}-3-phenyl-propan-1-one dihydrochloride], the IC50 in the series on PC-3 stood at 0.33 µM; in the series on NCI-H460, 0.24 µM; on cdk2/cyclin E, 30 nM; on cdk1/cyclin B, 58 nM; in the series on Colo-205, 0.07 µM; in the series on MDA-MB-435, 0.26 µM. The compound further yielded an IC50 against cdk4/cyclin D1 of 427 nM.
With `N[C@H]1CC[C@H](Nc2nc(NC3CCN(C(=O)C4CCC4)CC3)c3ncn(C4CCCC4)c3n2)CC1` [compound 63, trans-1-{4-[2-(4-Amino-cyclohexylamino)-9-cyclopentyl-9H-purin-6-ylamino]-piperidin-1-yl}-1-cyclobutyl-methanone dihydrochloride], the IC50 with PC-3 amounted to 0.21 µM; in the series on NCI-H460 it was 0.24 µM; against cdk2/cyclin E, 66 nM; at cdk1/cyclin B it was 23 nM; in the series on Colo-205 it was 0.16 µM; in the series with MDA-MB-435 it was 0.17 µM. Besides, it took 441 nM to reach half-maximal inhibition on cdk4/cyclin D1 (IC50).
With `N[C@H]1CC[C@H](Nc2nc(NC3CCN(C(=O)/C=C/c4cccc(C(F)(F)F)c4)CC3)c3ncn(C4CCCC4)c3n2)CC1` [compound 44, trans-(E)-1-{4-[2-(4-Amino-cyclohexylamino)-9-cyclopentyl-9H-purin-6-ylamino]-piperidin-1-yl}-3-(3-trifluoromethyl-phenyl)-propenone dihydrochloride], the IC50 with PC-3 is 0.29 µM; in the series with NCI-H460 it was 0.53 µM; at cdk2/cyclin E it was 76 nM; with Colo-205, 0.03 µM; in the series with MDA-MB-435, 0.22 µM.
On to `N[C@H]1CC[C@H](Nc2nc(NC3CCN(C(=O)c4ccc5c(c4)OCO5)CC3)c3ncn(C4CCCC4)c3n2)CC1` [compound 5, trans-1-{4-[2-(4-Amino-cyclohexylamino)-9-cyclopentyl-9H-purin-6-ylamino]-piperidin-1-yl}-1-benzo[1,3]dioxol-5-yl-methanone dihydrochloride], for which the half-inhibitory concentration (IC50) in the series with PC-3 is 0.66 µM; in the series with NCI-H460, 0.27 µM; in the series with Colo-205 it was < 0.02 µM; in the series with MDA-MB-435, 0.43 µM.
In the series “in vivo”, `NC1CCC(Nc2nc(NCCCc3ccccc3)c3ncn(C4CCCC4)c3n2)CC1` (stereo not drawn) [MDL 107167] showed an AUC(0-inf) of 531 ng·h/mL, a Cmax of 512 ng/mL and a half-life of 1.7 h.
As to `Cc1ccccc1NC(=O)N1CCC(Nc2nc(N[C@H]3CC[C@H](N)CC3)nc3c2ncn3C2CCCC2)CC1` [compound 208, trans-4-[2-(4-Amino-cyclohexylamino)-9-cyclopentyl-9H-purin-6-ylamino]-piperidine-1-carboxylic acid (2-methyl-phenyl)-amide dihydrochloride], the concentration for half-maximal inhibition (IC50) in the series on PC-3 came out at 0.68 µM; against cdk2/cyclin E, 8 nM; at cdk1/cyclin B, 180 nM; in the series with MDA-MB-435 it was 0.47 µM; against cdk4/cyclin D1, 73 nM.
